Experimental data as given in patent publication EP4603105A1, “PHARMACEUTICAL COMPOSITION CONTAINING CYCLIC COMPOUND HAVING SELECTIVE KRAS INHIBITORY EFFECT AGAINST HRAS AND NRAS” (CHUGAI SEIYAKU KABUSHIKI KAISHA, priority 2022, dated 2024).
pIC50, pKd: −log10 of the molar value. Where a SMILES comes first, the peptide text is derived from it. Bridges are numbered along the chain shown (N, C = ends). [ ]: non-standard residue; d: D form. The star is where a group is joined. hPhe(3-Cl-4-CF3) = N[C@@H](CCc1ccc(C(F)(F)F)c(Cl)c1)C(=O)O; NPrPhe(4-CF3) = CCCN[C@@H](Cc1ccc(C(F)(F)F)cc1)C(=O)O; NMeGly(cPent) = CN[C@H](C(=O)O)C1CCCC1; Pro(4,4-F2) = O=C(O)[C@@H]1CC(F)(F)CN1; NMeD = CN[C@@H](CC(=O)O)C(=O)O; NMeL = CN[C@@H](CC(C)C)C(=O)O; Pip = O=C(O)[C@@H]1CCCCN1; Morpholide = C1CN(*)CCO1; Ac5c = NC1(C(=O)O)CCCC1; Aze = O=C(O)[C@@H]1CCN1; Ac4c = NC1(C(=O)O)CCC1; NEtG = CCNCC(=O)O; Sar = CNCC(=O)O

How the values were obtained:
[1] = test system: human lung cancer strain NCI-H441; type: cell-based
In short: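 Step one: dispense the test compound in serial DMSO dilutions. Step three: add the reagent and measure […].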

[2] = target: GDP-bound NRAS wild-type protein (Homo sapiens, UniProt P01111); assay: Binding to NRAS by surface plasmon resonance (SPR), KD and KD ratio to KRAS
Chain of GDP-bound NRAS wild-type protein (P01111 whole entry): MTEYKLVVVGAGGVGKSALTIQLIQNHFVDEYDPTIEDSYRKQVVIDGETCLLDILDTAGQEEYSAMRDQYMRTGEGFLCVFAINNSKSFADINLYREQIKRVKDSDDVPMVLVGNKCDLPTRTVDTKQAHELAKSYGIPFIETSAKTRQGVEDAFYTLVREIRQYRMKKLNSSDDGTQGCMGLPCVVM
In short: (§1)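 Running buffer contained 10 µM GDP and 10 mM MgCl2 to keep RAS in the GDP state, with 4% DMSO at pH 7.4. Compounds were flowed at 100 µL/min in 75 s steps of rising concentration over captured biotin-Avi RAS at 30°C. Sensorgrams were fitted 1:1 for KD.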

[3] = target: GDP-bound KRAS wild-type protein (Homo sapiens, UniProt P01116); assay: Binding to KRAS by surface plasmon resonance (SPR), dissociation constant KD
Chain of GDP-bound KRAS wild-type protein (P01116 1-188 isoform P01116-2): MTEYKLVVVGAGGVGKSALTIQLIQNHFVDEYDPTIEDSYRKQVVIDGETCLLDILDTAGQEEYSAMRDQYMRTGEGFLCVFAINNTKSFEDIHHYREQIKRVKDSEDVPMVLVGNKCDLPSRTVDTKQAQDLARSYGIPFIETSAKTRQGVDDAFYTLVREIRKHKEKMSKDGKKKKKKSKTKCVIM
In short: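 Affinity is measured by surface plasmon resonance at 30°C against captured, GDP-loaded RAS carrying a biotinylated Avi tag. Compounds are titrated by single-cycle kinetics, and KD comes from a 1:1 fit.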

HRAS wild-type protein = HRAS wild-type protein (Homo sapiens, UniProt P01112); assay: Binding to HRAS by surface plasmon resonance (SPR), KD and KD ratio to KRAS
Chain of HRAS wild-type protein (P01112 whole entry): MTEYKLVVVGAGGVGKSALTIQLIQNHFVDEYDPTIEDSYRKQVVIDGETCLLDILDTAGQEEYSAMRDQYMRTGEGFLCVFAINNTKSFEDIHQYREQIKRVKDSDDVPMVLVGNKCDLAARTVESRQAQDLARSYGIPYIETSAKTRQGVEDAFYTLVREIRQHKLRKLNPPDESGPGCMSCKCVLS
In short: as §1

[4] = ratio of KD for GDP-bound NRAS wild-type protein to KD for KRAS
[5] = ratio of KD for HRAS wild-type protein to KD for KRAS
[6] = ratio of the KD value with respect to GDP-bound NRAS wild-type protein to the KD value with respect to KRAS
[7] = Single Cycle Kinetics, 1:1 binding model
[8] = ratio of the KD value with respect to HRAS wild-type protein to the KD value with respect to KRAS
[9] = ratio of KD value for GDP-bound NRAS wild-type protein to KD value for KRAS (SPR)
[10] = ratio of KD value for HRAS wild-type protein to KD value for KRAS (SPR)

| Compound | pIC50 [1] | NRAS /KRAS [2, 4] | pKd ([3]; 1:1 binding model) | HRAS /KRAS (HRAS wild-type protein; [5]) | pKd ([3]; Single Cycle Kinetics) | NRAS /KRAS [2, 6] | pKd [3, 7] | HRAS /KRAS (HRAS wild-type protein; [8]) | NRAS /KRAS [2, 9] | HRAS /KRAS (HRAS wild-type protein; [10]) |
| --- | --- | --- | --- | --- | --- | --- | --- | --- | --- | --- |
| CCO[C@@H]1C[C@H]2C(=O)NC3(CC(C)(C)C3)C(=O)N(C)[C@@H](C3CCCC3)C(=O)N(C)[C@H](C(=O)N(C)C)CC(=O)N(C)[C@@H]([C@H](C)OC)C(=O)N[C@@H]([C@@H](C)CC)C(=O)N3CCC[C@H]3C(=O)N(C)[C@H]3C/C=C\CCN(C3=O)[C@@H](Cc3ccc(C)cc3)C(=O)N(C)CC(=O)N[C@@H](CCc3cc(F)c(C(F)(F)F)c(F)c3)C(=O)N2C1 [PP3199] | 7.30 | A (a compound having 10 or more and less than 20 is denoted as A) | 9.10 | A (a compound having 10 or more and less than 20 is denoted as A) | – | – | – | – | – | – |
| CCO[C@@H]1C[C@H]2C(=O)NC3(CCC3)C(=O)N(C)[C@@H](C3CCCC3)C(=O)N(C)[C@H](C(=O)N3CCOCC3)CC(=O)N(C)[C@@H](CC(C)C)C(=O)N[C@@H]([C@@H](C)CC)C(=O)N(C)CC(=O)N(C)[C@H]3CCCCCN(C3=O)[C@@H](Cc3ccc(F)cc3)C(=O)N(C)CC(=O)N[C@@H](CCc3ccc(C(F)(F)F)c(Cl)c3)C(=O)N2C1 [PP0968] | 7.41 | B (a compound having 3 or more and less than 10 is denoted as B) | – | B (a compound having 3 or more and less than 10 is denoted as B) | 9.49 | – | – | – | – | – |
| CCC[C@H]1C(=O)N[C@@H](C2CCCCC2)C(=O)N(C)CC(=O)N(C)[C@H]2C/C=C\CCN(C2=O)[C@@H](Cc2ccc(C)cc2)C(=O)N(C)CC(=O)N[C@@H](CCc2ccc(C(F)(F)F)c(Cl)c2)C(=O)N2C[C@H](OCC)C[C@H]2C(=O)NC2(CC(C)(C)C2)C(=O)N(C)[C@@H](C2CCCC2)C(=O)N(C)[C@H](C(=O)N(C)C)CC(=O)N1C [PP2998] | 8.08 | A (a compound having 10 or more and less than 20 is denoted as A) | 9.37 | AA (a compound having 20 or more is denoted as AA) | – | – | – | – | – | – |
| CC[C@H](C)[C@@H]1NC(=O)[C@H](CC2CC2)N(C)C(=O)C[C@@H](C(=O)N(C)CC)N(C)C(=O)[C@H](C2CCCC2)N(C)C(=O)C2(CC(C)(C)C2)NC(=O)[C@@H]2C[C@@H](C)CN2C(=O)[C@H](CCc2ccc(C(F)(F)F)c(OC)c2)NC(=O)CN(C)C(=O)[C@H](Cc2ccc(C)cc2)N2CC/C=C\C[C@@H](C2=O)N(C)C(=O)CN(C)C1=O [PP1902] | 7.90 | – | – | – | – | A (a compound having 10 or more and less than 20 is denoted as A) | 9.70 | A (a compound having 10 or more and less than 20 is denoted as A) | – | – |
| CCC[C@H]1C(=O)N[C@@H]([C@@H](C)CC)C(=O)N(C)CC(=O)N(C)[C@H]2C/C=C\CCN(C2=O)[C@@H](Cc2ccc(C)cc2)C(=O)N(C)CC(=O)N[C@@H](CCc2ccc(C(F)(F)F)c(OC)c2)C(=O)N2CC3(CC3)C[C@H]2C(=O)NC2(CC(C)(C)C2)C(=O)N(C)[C@@H]([C@@H](C)CC)C(=O)N(C)[C@H](C(=O)N(C)C)CC(=O)N1C [PP3011] | 7.51 | A (a compound having 10 or more and less than 20 is denoted as A) | 9.24 | B (a compound having 3 or more and less than 10 is denoted as B) | – | – | – | – | – | – |
| CC[C@H](C)[C@@H]1NC(=O)[C@H](COC)N(C)C(=O)C[C@@H](C(=O)N(C)CC)N(C)C(=O)[C@H](C2CCCC2)N(C)C(=O)C2(CC(C)(C)C2)NC(=O)[C@@H]2CC(F)(F)CN2C(=O)[C@H](CCc2ccc(C(F)(F)F)c(Cl)c2)NC(=O)CN(C)C(=O)[C@H](Cc2ccc(C(F)(F)F)cc2)N2CC/C=C\C[C@@H](C2=O)N(C)C(=O)CN(CC)C1=O [PP3135] | 7.56 | A (a compound having 10 or more and less than 20 is denoted as A) | 8.96 | A (a compound having 10 or more and less than 20 is denoted as A) | – | – | – | – | – | – |
| CCCOC[C@H]1C(=O)N[C@@H]([C@@H](C)CC)C(=O)N(C)CC(=O)N(C)[C@H]2C/C=C\CCN(C2=O)[C@@H](Cc2ccc(C(F)(F)F)cc2)C(=O)N(C)CC(=O)N[C@@H](CCc2ccc(C(F)(F)F)c(OC)c2)C(=O)N2C[C@@H](C)C[C@H]2C(=O)NC2(CCC2)C(=O)N(C)[C@@H](C2CCCC2)C(=O)N(C)[C@H](C(=O)N(C)CCC)CC(=O)N1C [PP2028] | 7.76 | – | – | – | – | A (a compound having 10 or more and less than 20 is denoted as A) | 9.96 | B (a compound having 3 or more and less than 10 is denoted as B) | – | – |
| CCC[C@H]1C(=O)N[C@@H]([C@@H](C)CC)C(=O)N(C)CC(=O)N(C)[C@H]2C/C=C\CCN(C2=O)[C@@H](Cc2ccc(C)cc2)C(=O)N(C)CC(=O)N[C@@H](CCc2cc(F)c(C(F)(F)F)c(F)c2)C(=O)N2CCC[C@H]2C(=O)N(C)C2(CCC2)C(=O)N(C)[C@@H](C2CCCC2)C(=O)N(C)[C@H](C(=O)N(C)C)CC(=O)N1C [PP1794] | 8.06 | – | – | – | – | – | 10.22 | – | A (a compound having 10 or more and less than 20 is denoted as A) | B (a compound having 3 or more and less than 10 is denoted as B) |
| CCCN1C(=O)C[C@@H](C(=O)N(C)C)N(C)C(=O)[C@H](C2CCCC2)N(C)C(=O)C2(CCC2)NC(=O)[C@@H]2C[C@@H](OCC)CN2C(=O)[C@H](CCc2cc(F)c(C(F)(F)F)c(F)c2)NC(=O)CN(C)C(=O)[C@H](Cc2ccc(C(F)(F)F)cc2)N2CC/C=C\C[C@@H](C2=O)N(C)C(=O)CN(C)C(=O)[C@H]([C@@H](C)CC)NC(=O)[C@@H]1CC(C)C [PP1825] | 8.10 | – | – | – | – | – | 9.85 | – | A (a compound having 10 or more and less than 20 is denoted as A) | A (a compound having 10 or more and less than 20 is denoted as A) |
| CCCN1C(=O)CN(C)C(=O)[C@@H]2CCN2C(=O)[C@H]([C@@H](C)CC)NC(=O)[C@H](CC(C)C)N(C)C(=O)C[C@@H](C(=O)N2CCOCC2)N(C)C(=O)[C@H](C2CCCC2)N(C)C(=O)C2(CCC2)NC(=O)[C@@H]2CC(F)(F)CN2C(=O)[C@H](CCc2ccc(C(F)(F)F)c(Cl)c2)NC(=O)CN(C)C(=O)[C@@H]1Cc1ccc(C(F)(F)F)cc1 [PP0404] ([NMeL]I[Aze][Sar][NPrPhe(4-CF3)][Sar][hPhe(3-Cl-4-CF3)][Pro(4,4-F2)][Ac4c][NMeGly(cPent)][NMeD]-Morpholide; lactam N-11) | 7.66 | – | – | – | – | B (a compound having 3 or more and less than 10 is denoted as B) | 9.43 | C (A compound having a KD ratio of 0.1 or more and less than 3 is denoted as C) | – | – |
| CCC[C@H]1C(=O)N[C@@H]([C@@H](C)CC)C(=O)N(C)CC(=O)N(C)[C@H]2C/C=C\CCN(C2=O)[C@@H](Cc2ccc(C)cc2)C(=O)N(C)CC(=O)N[C@@H](CCc2ccc(C(F)(F)F)c(OC)c2)C(=O)N2C[C@@H](C)C[C@H]2C(=O)NC2(CCC2)C(=O)N(C)[C@@H](C2CCCC2)C(=O)N(C)[C@H](C(=O)N(C)C)CC(=O)N1C [PP1857] | 8.30 | – | – | – | – | – | 10.04 | – | A (a compound having 10 or more and less than 20 is denoted as A) | B (a compound having 3 or more and less than 10 is denoted as B) |
| CC[C@H](C)[C@@H]1NC(=O)[C@H](Cc2ccccc2)N(C)C(=O)C[C@@H](C(=O)N2CCOCC2)N(C)C(=O)[C@H](C2CCCC2)N(C)C(=O)C2(CCCC2)NC(=O)[C@@H]2CCCN2C(=O)[C@H](CCc2ccc(C(F)(F)F)c(Cl)c2)NC(=O)CN(C)C(=O)[C@H](Cc2ccc(F)cc2)N2CCCCC[C@@H](C2=O)N(C)C(=O)CN(C)C1=O [PP0961] | 7.27 | B (a compound having 3 or more and less than 10 is denoted as B) | – | B (a compound having 3 or more and less than 10 is denoted as B) | 9.21 | – | – | – | – | – |
| CCCN1C(=O)CN(C)C(=O)CN(CC)C(=O)[C@H]([C@@H](C)CC)NC(=O)[C@H](CC(C)C)N(C)C(=O)C[C@@H](C(=O)N2CCOCC2)N(C)C(=O)[C@H](C2CCCC2)N(C)C(=O)C2(CCCC2)NC(=O)[C@@H]2CCCCN2C(=O)[C@H](CCc2ccc(C(F)(F)F)c(Cl)c2)NC(=O)CN(C)C(=O)[C@@H]1Cc1ccc(C(F)(F)F)cc1 [PP0297] ([NMeL]I[NEtG][Sar][NPrPhe(4-CF3)][Sar][hPhe(3-Cl-4-CF3)][Pip][Ac5c][NMeGly(cPent)][NMeD]-Morpholide; lactam N-11) | 7.13 | B (a compound having 3 or more and less than 10 is denoted as B) | 8.64 | C (A compound having a KD ratio of 0.1 or more and less than 3 is denoted as C) | – | – | – | – | – | – |
| CC[C@H](C)[C@@H]1NC(=O)[C@@H]2CCCc3ccc(cc3)C[C@@H](C(=O)N(C)CC(=O)N[C@@H](CCc3ccc(C(F)(F)F)c(OC)c3)C(=O)N3C[C@H](OC(C)C)C[C@H]3C(=O)NC3(CC(C)(C)C3)C(=O)N(C)[C@@H](C3CCCC3)C(=O)N(C)[C@H](C(=O)N(C)CC)CC(=O)N2C)N2CC/C=C\C[C@@H](C2=O)N(C)C(=O)CN(C)C1=O [PP3084] | 8.43 | A (a compound having 10 or more and less than 20 is denoted as A) | 9.92 | B (a compound having 3 or more and less than 10 is denoted as B) | – | – | – | – | – | – |
